Experimental data from patent publication US11136317B2, “NADPH oxidase 4 inhibitors” (ACTELION PHARMACEUTICALS LTD, priority 2015, dated 2021).

Molecular target: T1, human NOX4 (Homo sapiens, UniProt Q9NPH5)
T1 construct: The full-length human NOX4 (NM_016931.3) transcript was cloned; expressed in transfected cells
T1 sequence (Q9NPH5 1-578): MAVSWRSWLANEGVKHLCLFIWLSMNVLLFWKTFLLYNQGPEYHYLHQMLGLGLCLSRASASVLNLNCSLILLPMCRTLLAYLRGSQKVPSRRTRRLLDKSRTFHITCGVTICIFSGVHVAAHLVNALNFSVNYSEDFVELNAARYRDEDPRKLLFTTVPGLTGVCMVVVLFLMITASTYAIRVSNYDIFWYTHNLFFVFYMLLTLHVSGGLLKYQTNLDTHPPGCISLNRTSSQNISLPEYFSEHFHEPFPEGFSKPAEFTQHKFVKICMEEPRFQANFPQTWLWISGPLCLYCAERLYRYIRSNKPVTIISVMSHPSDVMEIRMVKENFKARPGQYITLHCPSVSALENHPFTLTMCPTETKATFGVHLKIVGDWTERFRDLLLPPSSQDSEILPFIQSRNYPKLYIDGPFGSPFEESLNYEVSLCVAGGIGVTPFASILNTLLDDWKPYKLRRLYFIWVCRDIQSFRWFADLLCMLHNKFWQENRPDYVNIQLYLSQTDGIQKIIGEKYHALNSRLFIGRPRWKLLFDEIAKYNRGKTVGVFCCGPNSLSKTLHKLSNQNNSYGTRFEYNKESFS
T1 sequence (P13498 1-195 partner): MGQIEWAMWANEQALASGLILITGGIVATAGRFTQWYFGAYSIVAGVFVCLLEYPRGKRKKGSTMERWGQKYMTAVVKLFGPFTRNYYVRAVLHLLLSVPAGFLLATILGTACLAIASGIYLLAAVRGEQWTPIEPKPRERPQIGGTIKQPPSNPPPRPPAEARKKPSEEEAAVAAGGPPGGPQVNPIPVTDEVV
Assay: Amplex Red activity assay (cellular H2O2 formation in hNOX4 T-REx-293 cells)
Format: cell-based
Conditions: tet-induced 24 h, extracellular H2O2 by Amplex Red, 60 min 25° C., geometric mean if determined several times
Outline: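 Tet-induced (1 μg/mL, 24 h) HEK293 T-REx cells stably expressing full-length human NOX4, 20 000 cells/well, exposed to compounds (10 concentrations, 50 μM to 100 nM; 1.25% DMSO) for 60 min at 25°C. Extracellular H2O2 detected by Amplex Red resorufin fluorescence (ex 550/em 600 nm) versus vehicle; IC50 calculated.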

IC50 [µM]	SMILES
2.44	CN1CCOc2ccc(C(=O)Nc3ccc4oc(N5CCC56CCOC6)nc4c3)cc21 (stereo not shown) [Example 181, 4-Methyl-3,4-dihydro-2H-benzo[1,4]oxazine-6-carboxylic acid [2-(6-oxa-1-aza-spiro[3.4]oct-1-yl)-benzooxazol-5-yl]-amide]
3.39	CN1CCOc2ccc(C(=O)Nc3ccc4oc(N5CCC56CCOCC6)nc4c3)cc21 [Example 182, 4-Methyl-3,4-dihydro-2H-benzo[1,4]oxazine-6-carboxylic acid [2-(7-oxa-1-aza-spiro[3.5]non-1-yl)-benzooxazol-5-yl]-amide]
8.7	CN1CCOc2ccc(C(=O)Nc3ccc4oc(N5CCCC5)nc4c3)cc21 [Example 183, 4-Methyl-3,4-dihydro-2H-benzo[1,4]oxazine-6-carboxylic acid (2-pyrrolidin-1-yl-benzooxazol-5-yl)-amide]
1.89	CN1CCOc2ccc(C(=O)Nc3ccc4oc(N5CCCC56COC6)nc4c3)cc21 [Example 184, 4-Methyl-3,4-dihydro-2H-benzo[1,4]oxazine-6-carboxylic acid [2-(2-oxa-5-aza-spiro[3.4]oct-5-yl)-benzooxazol-5-yl]-amide]
3.86	CN1CCOc2ccc(C(=O)Nc3ccc4oc(N5CCCCC5)nc4c3)cc21 [Example 185, 4-Methyl-3,4-dihydro-2H-benzo[1,4]oxazine-6-carboxylic acid (2-piperidin-1-yl-benzooxazol-5-yl)-amide]
3.45	CN1CCOc2ccc(C(=O)Nc3ccc4oc(N5CCC(O)CC5)nc4c3)cc21 [Example 186, 4-Methyl-3,4-dihydro-2H-benzo[1,4]oxazine-6-carboxylic acid [2-(4-hydroxy-piperidin-1-yl)-benzooxazol-5-yl]-amide]
3.39	CN1CCOc2ccc(C(=O)Nc3ccc4oc(N5CCC(F)(F)CC5)nc4c3)cc21 [Example 187, 4-Methyl-3,4-dihydro-2H-benzo[1,4]oxazine-6-carboxylic acid [2-(4,4-difluoro-piperidin-1-yl)-benzooxazol-5-yl]-amide]
3.64	CN1CCOc2ccc(C(=O)Nc3ccc4oc(N5CCCC(F)(F)C5)nc4c3)cc21 [Example 188, 4-Methyl-3,4-dihydro-2H-benzo[1,4]oxazine-6-carboxylic acid [2-(3,3-difluoro-piperidin-1-yl)-benzooxazol-5-yl]-amide]
2.19	CN1CCOc2ccc(C(=O)Nc3ccc4oc(N5CCCC6(COC6)C5)nc4c3)cc21 [Example 189, 4-Methyl-3,4-dihydro-2H-benzo[1,4]oxazine-6-carboxylic acid [2-(2-oxa-6-aza-spiro[3.5]non-6-yl)-benzooxazol-5-yl]-amide]
3.58	CN1CCOc2ccc(C(=O)Nc3ccc4oc(N5CCC6(CC5)COC6)nc4c3)cc21 [Example 190, 4-Methyl-3,4-dihydro-2H-benzo[1,4]oxazine-6-carboxylic acid [2-(2-oxa-7-aza-spiro[3.5]non-7-yl)-benzooxazol-5-yl]-amide]
4.38	COC1CCN(c2nc3cc(NC(=O)c4ccc5c(c4)N(C)CCO5)ccc3o2)CC1 [Example 191, 4-Methyl-3,4-dihydro-2H-benzo[1,4]oxazine-6-carboxylic acid [2-(4-methoxy-piperidin-1-yl)-benzooxazol-5-yl]-amide]
4.32	CN1CCOc2ccc(C(=O)Nc3ccc4oc(N5CCOCC5)nc4c3)cc21 [Example 192, 4-Methyl-3,4-dihydro-2H-benzo[1,4]oxazine-6-carboxylic acid (2-morpholin-4-yl-benzooxazol-5-yl)-amide]
4.04	CN1CCN(c2nc3cc(NC(=O)c4ccc5c(c4)N(C)CCO5)ccc3o2)CC1 [Example 193, 4-Methyl-3,4-dihydro-2H-benzo[1,4]oxazine-6-carboxylic acid [2-(4-methyl-piperazin-1-yl)-benzooxazol-5-yl]-amide]
3.58	CCN(CC)c1nc2cc(NC(=O)c3ccc4c(c3)N(C)CCO4)ccc2o1 [Example 194, 4-Methyl-3,4-dihydro-2H-benzo[1,4]oxazine-6-carboxylic acid (2-diethylamino-benzooxazol-5-yl)-amide]
4.44	CN1CCOc2ccc(C(=O)Nc3ccc4oc(N(C5CC5)C5COC5)nc4c3)cc21 [Example 195, 4-Methyl-3,4-dihydro-2H-benzo[1,4]oxazine-6-carboxylic acid [2-(cyclopropyl-oxetan-3-yl-amino)-benzooxazol-5-yl]-amide]
2.56	O=C(Nc1ccc2c(c1)CCO2)c1ccc2sc(N3CCCCC3)nc2c1 [Example 196, 2-Piperidin-1-yl-benzothiazole-5-carboxylic acid (2,3-dihydro-benzofuran-5-yl)-amide]

IC50 [µM]	SMILES
0.728	O=C(Nc1ccc2c(c1)CCO2)c1ccc2sc(N3CCC34COC4)nc2c1 [Example 197, 2-(6-Oxa-1-aza-spiro[3.3]hept-1-yl)-benzothiazole-5-carboxylic acid (2,3-dihydro-benzofuran-5-yl)-amide]
45.2	O=C(Nc1ccc2c(c1)CCO2)c1ccc2sc(N3CCC(F)(F)CC3)nc2c1 [Example 198, 2-(4,4-Difluoro-piperidin-1-yl)-benzothiazole-5-carboxylic acid (2,3-dihydro-benzofuran-5-yl)-amide]
23.9	O=C(Nc1ccc2c(c1)CCO2)c1ccc2sc(N3CCS(=O)(=O)CC3)nc2c1 [Example 199, 2-(1,1-Dioxo-thiomorpholin-4-yl)-benzothiazole-5-carboxylic acid (2,3-dihydro-benzofuran-5-yl)-amide]
2.75	COC1CCN(c2nc3cc(C(=O)Nc4ccc5c(c4)CCO5)ccc3s2)CC1 [Example 200, 2-(4-Methoxy-piperidin-1-yl)-benzothiazole-5-carboxylic acid (2,3-dihydro-benzofuran-5-yl)-amide]
2.87	CN1CCN(c2nc3cc(C(=O)Nc4ccc5c(c4)CCO5)ccc3s2)CC1 [Example 201, 2-(4-Methyl-piperazin-1-yl)-benzothiazole-5-carboxylic acid (2,3-dihydro-benzofuran-5-yl)-amide]
0.729	O=C(Nc1ccc2c(c1)CCO2)c1ccc2sc(N3CCC34CCOC4)nc2c1 (stereo not shown) [Example 202, 2-(6-Oxa-1-aza-spiro[3.4]oct-1-yl)-benzothiazole-5-carboxylic acid (2,3-dihydro-benzofuran-5-yl)-amide]
1.84	O=C(Nc1ccc2c(c1)OCCO2)c1ccc2sc(N3CCC34COC4)nc2c1 [Example 203, 2-(6-Oxa-1-aza-spiro[3.3]hept-1-yl)-benzothiazole-5-carboxylic acid (2,3-dihydro-benzo[1,4]dioxin-6-yl)-amide]
25.5	O=C(Nc1ccc2c(c1)OCCO2)c1ccc2sc(N3CCC(F)(F)CC3)nc2c1 [Example 204, 2-(4,4-Difluoro-piperidin-1-yl)-benzothiazole-5-carboxylic acid (2,3-dihydro-benzo[1,4]dioxin-6-yl)-amide]
26.8	COC1CCN(c2nc3cc(C(=O)Nc4ccc5c(c4)OCCO5)ccc3s2)CC1 [Example 205, 2-(4-Methoxy-piperidin-1-yl)-benzothiazole-5-carboxylic acid (2,3-dihydro-benzo[1,4]dioxin-6-yl)-amide]
21.2	CN1CCN(c2nc3cc(C(=O)Nc4ccc5c(c4)OCCO5)ccc3s2)CC1 [Example 206, 2-(4-Methyl-piperazin-1-yl)-benzothiazole-5-carboxylic acid (2,3-dihydro-benzo[1,4]dioxin-6-yl)-amide]
12.8	O=C(Nc1ccc2c(c1)OCCO2)c1ccc2sc(N3CCCCC3)nc2c1 [Example 207, 2-Piperidin-1-yl-benzothiazole-5-carboxylic acid (2,3-dihydro-benzo[1,4]dioxin-6-yl)-amide]
2.71	O=C(Nc1ccc2c(c1)OCCO2)c1ccc2sc(N3CCC34CCOC4)nc2c1 (stereo not shown) [Example 208, 2-(6-Oxa-1-aza-spiro[3.4]oct-1-yl)-benzothiazole-5-carboxylic acid (2,3-dihydro-benzo[1,4]dioxin-6-yl)-amide]
1.5	O=C(Nc1ccc2c(c1)OCO2)c1ccc2sc(N3CCC34COC4)nc2c1 [Example 209, 2-(6-Oxa-1-aza-spiro[3.3]hept-1-yl)-benzothiazole-5-carboxylic acid benzo[1,3]dioxol-5-ylamide]
6.9	COC1CCN(c2nc3cc(C(=O)Nc4ccc5c(c4)OCO5)ccc3s2)CC1 [Example 210, 2-(4-Methoxy-piperidin-1-yl)-benzothiazole-5-carboxylic acid benzo[1,3]dioxol-5-ylamide]
8.9	CN1CCN(c2nc3cc(C(=O)Nc4ccc5c(c4)OCO5)ccc3s2)CC1 [Example 211, 2-(4-Methyl-piperazin-1-yl)-benzothiazole-5-carboxylic acid benzo[1,3]dioxol-5-ylamide]
